The results in this text go back to US3960845A, “Process for preparing 7β-acylamino-7α-alkoxycephalosporins or 6β-acylamino-6α-alkoxypenicillins” (Sankyo Company Limited, priority 1974, dated 1976).

Each structure is given as a SMILES string. In brackets after ≈: the same amount, converted by molar mass. A value given as a limit tells only on which side of the number the result lay.

What all share (format): cell-based
Assay [1] relates to Proteus vulgaris. The assay can be described thus: Minimal inhibitory concentration. To be noted: V: Proteus vulgaris; read-out: Minimal inhibitory concentration. The source says: (§1) Minimal inhibitory concentrations of various microorganisms mcg/ml
Assay [2] has as its system E. coli NIHJ. Kind of assay: Minimal inhibitory concentration. To be noted: Escherichia coli; II A: E. coli NIHJ.
From the text: as §1

For assay [3], the system named is Shigella flexneri Komagome. The assay can be described thus: Minimal inhibitory concentration. To be noted: Shigella flexneri, read-out: Minimal inhibitory concentration.
From the text: as §1
III Shigella flexneri Komagome

For assay [4], the system named is Staphylococcus aureus 209p. Kind of assay: Minimal inhibitory concentration. To be noted: I A: Staphylococcus aureus 209p; read-out: Minimal inhibitory concentration.
From the text: as §1
1 A Staphylococcus aureus 209p

In assay [5] the test system is Klebsiella neumoniae 806. The assay can be described thus: Minimal inhibitory concentration. The note with it: IV A: Klebsiella neumoniae 806; read-out: Minimal inhibitory concentration.
From the text: as §1
IV A Klebsiella neumoniae 806

Assay [6] deals with E. coli 609 (CER resistant). The assay can be described thus: Minimal inhibitory concentration. To be noted: Escherichia coli; II B: E. coli 609 (CER resistant); read-out: Minimal inhibitory concentration.
From the text: as §1
II B E. coli 609 (CER resistant)

Assay [7] has as its system Salmonella enteritidis Gaertner. The assay can be described thus: Minimal inhibitory concentration. The note with it: Salmonella enterica; VI: Salmonella enteritidis Gaertner; read-out: Minimal inhibitory concentration.
From the text: as §1
VI Salmonella enteritidis Gaertner

The test system of assay [8] is broad pathogenic microorganisms. The assay can be described thus: antimicrobial activity. The note with it: result in words.
The subject of assay [9] is Klebsiella neumoniae 846 (CER resistant). Kind of assay: Minimal inhibitory concentration. The note with it: IV B: Klebsiella neumoniae 846 (CER resistant).
From the text: as §1
IV B Klebsiella neumoniae 846 (CER resistant)

Assay [10] has as its system Staphylococcus aureus (CP and PC resistant). Kind of assay: Minimal inhibitory concentration. The note with it: I B: Staphylococcus aureus (CP and PC resistant).
From the text: as §1
1 B Staphylococcus aureus

On to `C#CCSCC(=O)N[C@]1(OC)C(=O)N2C(C(=O)O)=C(COC(N)=O)CS[C@@H]21` [7β-propargylthioacetamido-7α-methoxy-3-carbamoyloxymethyl-3-cephem-4-carboxylic acid], for which the MIC in assay [1] came to 6.2 µg/mL (≈ 14.9 µM); in assay [2] it was 3.1 µg/mL (≈ 7.46 µM); in [3], 6.2 µg/mL (≈ 14.9 µM); in assay [4] it was 0.8 µg/mL (≈ 1.93 µM); in assay [5], 3.1 µg/mL (≈ 7.46 µM); in assay [6], 3.1 µg/mL (≈ 7.46 µM). Further, the MIC was 1.5 µg/mL (≈ 3.61 µM) in [7], over 400 µg/mL in assay [9] and 1.5 µg/mL (≈ 3.61 µM) in assay [10]. The “antimicrobial activity against broad pathogenic microorganisms” value in [8] was “excellent antimicrobial activity”.
